Experiments:
Test in all cases: relative viability (nuclei count vs DMSO), 5 days (fraction); higher = more cells survive
201T = test system: 201T
How it was run: (§1)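 Lung cancer cell lines in 1536-well plates got either a single drug or a fixed anchor-drug dose together with five library-drug doses (not always all listed) in √10 steps, by pin tool, on the day after seeding. Nuclei were counted after 5 days, and relative viability is the treated-to-vehicle ratio of nuclei counts. Values are medians of duplicate plates.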

A-427 = test system: A-427
How it was run: as §1

COR-L23 = test system: COR-L23
How it was run: as §1

H3255 = test system: H3255
How it was run: as §1

LCLC-103H = test system: LCLC-103H
How it was run: as §1

LCLC-97TM1 = test system: LCLC-97TM1
How it was run: as §1

LK-2 = test system: LK-2
How it was run: as §1

LU99A = test system: LU99A
How it was run: as §1

NCI-H1563 = test system: NCI-H1563
How it was run: as §1

NCI-H1650 = test system: NCI-H1650
How it was run: as §1

NCI-H1651 = test system: NCI-H1651
How it was run: as §1

NCI-H1793 = test system: NCI-H1793
How it was run: as §1

NCI-H1944 = test system: NCI-H1944
How it was run: as §1

NCI-H2347 = test system: NCI-H2347
How it was run: as §1

NCI-H23 = test system: NCI-H23
How it was run: as §1

NCI-H460 = test system: NCI-H460
How it was run: as §1

NCI-H650 = test system: NCI-H650
How it was run: as §1

NCI-H727 = test system: NCI-H727
How it was run: as §1

NCI-H838 = test system: NCI-H838
How it was run: as §1

PC-14 = test system: PC-14
How it was run: as §1

PC-3 [JPC-3] = test system: PC-3 [JPC-3]
How it was run: as §1

RERF-LC-KJ = test system: RERF-LC-KJ
How it was run: as §1

SW 1573 = test system: SW 1573
How it was run: as §1

SW 900 = test system: SW 900
How it was run: as §1

Clc1ccc(Nc2nnc(Cc3ccncc3)c3ccccc23)cc1 [Vatalanib] + Cc1nc(Nc2ncc(C(=O)Nc3c(C)cccc3Cl)s2)cc(N2CCN(CCO)CC2)n1 [Dasatinib] (partner 0.075 µM)
relative viability (201T; first compound 0.04 µM): 0.576
relative viability (201T; first compound 0.1265 µM): 0.564
relative viability (201T; first compound 0.4 µM): 0.594
relative viability (201T; first compound 1.265 µM): 0.555
relative viability (201T; first compound 4 µM): 0.579
relative viability (A-427; first compound 0.04 µM): 0.784
relative viability (A-427; first compound 0.1265 µM): 0.642
relative viability (A-427; first compound 0.4 µM): 0.638
relative viability (A-427; first compound 1.265 µM): 0.662
relative viability (A-427; first compound 4 µM): 0.732
relative viability (COR-L23; first compound 0.04 µM): 0.502
relative viability (COR-L23; first compound 0.1265 µM): 0.502
relative viability (COR-L23; first compound 0.4 µM): 0.651
relative viability (COR-L23; first compound 1.265 µM): 0.414
relative viability (COR-L23; first compound 4 µM): 0.519
relative viability (H3255; first compound 0.04 µM): 0.316
relative viability (H3255; first compound 0.1265 µM): 0.385
relative viability (H3255; first compound 0.4 µM): 0.311
relative viability (H3255; first compound 1.265 µM): 0.28
relative viability (H3255; first compound 4 µM): 0.335
relative viability (LCLC-103H; first compound 0.04 µM): 0.428
relative viability (LCLC-103H; first compound 0.1265 µM): 0.462
relative viability (LCLC-103H; first compound 0.4 µM): 0.543
relative viability (LCLC-103H; first compound 1.265 µM): 0.484
relative viability (LCLC-103H; first compound 4 µM): 0.396
relative viability (LCLC-97TM1; first compound 0.04 µM): 0.994
relative viability (LCLC-97TM1; first compound 0.1265 µM): 0.621
relative viability (LCLC-97TM1; first compound 0.4 µM): 0.839
relative viability (LCLC-97TM1; first compound 1.265 µM): 0.775
relative viability (LCLC-97TM1; first compound 4 µM): 0.871
relative viability (LK-2; first compound 0.04 µM): 0.322
relative viability (LK-2; first compound 0.1265 µM): 0.219
relative viability (LK-2; first compound 0.4 µM): 0.244
relative viability (LK-2; first compound 1.265 µM): 0.27
relative viability (LK-2; first compound 4 µM): 0.294
relative viability (LU99A; first compound 0.04 µM): 0.499
relative viability (LU99A; first compound 0.1265 µM): 0.58
relative viability (LU99A; first compound 0.4 µM): 0.685
relative viability (LU99A; first compound 1.265 µM): 0.44
relative viability (LU99A; first compound 4 µM): 0.583
relative viability (NCI-H1563; first compound 0.04 µM): 0.45
relative viability (NCI-H1563; first compound 0.1265 µM): 0.479
relative viability (NCI-H1563; first compound 0.4 µM): 0.428
relative viability (NCI-H1563; first compound 1.265 µM): 0.456
relative viability (NCI-H1563; first compound 4 µM): 0.346
relative viability (NCI-H1650; first compound 0.04 µM): 0.346
relative viability (NCI-H1650; first compound 0.1265 µM): 0.275
relative viability (NCI-H1650; first compound 0.4 µM): 0.354
relative viability (NCI-H1650; first compound 1.265 µM): 0.217
relative viability (NCI-H1650; first compound 4 µM): 0.289
relative viability (NCI-H1651; first compound 0.04 µM): 0.317
relative viability (NCI-H1651; first compound 0.1265 µM): 0.31
relative viability (NCI-H1651; first compound 0.4 µM): 0.421
relative viability (NCI-H1651; first compound 1.265 µM): 0.462
relative viability (NCI-H1651; first compound 4 µM): 0.372
relative viability (NCI-H1793; first compound 0.04 µM): 0.379
relative viability (NCI-H1793; first compound 0.1265 µM): 0.377
relative viability (NCI-H1793; first compound 0.4 µM): 0.458
relative viability (NCI-H1793; first compound 1.265 µM): 0.349
relative viability (NCI-H1793; first compound 4 µM): 0.4
relative viability (NCI-H1944; first compound 0.04 µM): 0.227
relative viability (NCI-H1944; first compound 0.1265 µM): 0.228
relative viability (NCI-H1944; first compound 0.4 µM): 0.254
relative viability (NCI-H1944; first compound 1.265 µM): 0.23
relative viability (NCI-H1944; first compound 4 µM): 0.228
relative viability (NCI-H2347; first compound 0.04 µM): 0.295
relative viability (NCI-H2347; first compound 0.1265 µM): 0.352
relative viability (NCI-H2347; first compound 0.4 µM): 0.342
relative viability (NCI-H2347; first compound 1.265 µM): 0.28
relative viability (NCI-H2347; first compound 4 µM): 0.385
relative viability (NCI-H23; first compound 0.04 µM): 0.792
relative viability (NCI-H23; first compound 0.1265 µM): 0.73
relative viability (NCI-H23; first compound 0.4 µM): 0.929
relative viability (NCI-H23; first compound 1.265 µM): 0.772
relative viability (NCI-H23; first compound 4 µM): 0.667
relative viability (NCI-H460; first compound 0.04 µM): 0.558
relative viability (NCI-H460; first compound 0.1265 µM): 0.498
relative viability (NCI-H460; first compound 0.4 µM): 0.54
relative viability (NCI-H460; first compound 1.265 µM): 0.351
relative viability (NCI-H460; first compound 4 µM): 0.409
relative viability (NCI-H650; first compound 0.04 µM): 0.434
relative viability (NCI-H650; first compound 0.1265 µM): 0.448
relative viability (NCI-H650; first compound 1.265 µM): 0.399
relative viability (NCI-H650; first compound 4 µM): 0.434
relative viability (NCI-H727; first compound 0.04 µM): 0.339
relative viability (NCI-H727; first compound 0.1265 µM): 0.37
relative viability (NCI-H727; first compound 0.4 µM): 0.326
relative viability (NCI-H727; first compound 1.265 µM): 0.41
relative viability (NCI-H727; first compound 4 µM): 0.425
relative viability (NCI-H838; first compound 0.04 µM): 0.325
relative viability (NCI-H838; first compound 0.1265 µM): 0.277
relative viability (NCI-H838; first compound 0.4 µM): 0.292
relative viability (NCI-H838; first compound 1.265 µM): 0.275
relative viability (NCI-H838; first compound 4 µM): 0.273
relative viability (PC-14; first compound 0.04 µM): 0.318
relative viability (PC-14; first compound 0.1265 µM): 0.248
relative viability (PC-14; first compound 0.4 µM): 0.34
relative viability (PC-14; first compound 1.265 µM): 0.244
relative viability (PC-14; first compound 4 µM): 0.245
relative viability (PC-3 [JPC-3]; first compound 0.04 µM): 0.949
relative viability (PC-3 [JPC-3]; first compound 0.1265 µM): 0.982
relative viability (PC-3 [JPC-3]; first compound 0.4 µM): 0.951
relative viability (PC-3 [JPC-3]; first compound 1.265 µM): 0.913
relative viability (PC-3 [JPC-3]; first compound 4 µM): 0.891
relative viability (RERF-LC-KJ; first compound 0.04 µM): 0.851
relative viability (RERF-LC-KJ; first compound 0.1265 µM): 0.828
relative viability (RERF-LC-KJ; first compound 0.4 µM): 0.809
relative viability (RERF-LC-KJ; first compound 1.265 µM): 0.623
relative viability (RERF-LC-KJ; first compound 4 µM): 0.593
relative viability (SW 1573; first compound 0.04 µM): 0.73
relative viability (SW 1573; first compound 0.1265 µM): 0.496
relative viability (SW 1573; first compound 0.4 µM): 0.645
relative viability (SW 1573; first compound 1.265 µM): 0.395
relative viability (SW 1573; first compound 4 µM): 0.476
relative viability (SW 900; first compound 0.1265 µM): 0.535
relative viability (SW 900; first compound 0.4 µM): 0.599
relative viability (SW 900; first compound 1.265 µM): 0.474
relative viability (SW 900; first compound 4 µM): 0.417

Reference: the supplement of paper PMC10307832
